Source: patent US4760136A, “Chartreusin derivatives and salts thereof” (Ishihara Sangyo Kaisha, Ltd., priority 1984, dated 1988)
Counter-ions that a name gives are not always drawn.

Key:
P-388 leukemia cells = assay: Antitumor activity: P-388 leukemia cells inoculated intraperitoneally, drug administered intravenously, BDF1 mice; format: in vivo; conditions: for response vs control in vivo at 80 mg/kg: dose f: 80 mg/kg × 3, i.v. on days 1, 5 and 9
How it was run: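 Drug dosing was intravenous on the first, fifth and ninth days after intraperitoneal inoculation of P-388 leukemia cells (1×10^6 per mouse) into BDF1 mice. Vehicles were physiological saline alone, or saline with small amounts of sodium carboxymethyl cellulose or Tween-80.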

P-388 leukemia = conditions: i.p. inoculation, i.p. administration; cited from earlier work
L-1210 leukemia = conditions: i.p. inoculation, i.p. administration; cited from earlier work
B-16 melanoma = conditions: i.p. inoculation, i.p. administration; cited from earlier work
cancer = conditions: different sites; cited from earlier work
ddY mice = assay: Acute toxicity, intravenous (once), ddY mice; format: in vivo; conditions: formulated per Preparation Example
Excerpt: In Table 7 are shown acute toxicity values (LD50, mg/kg) in ddY mice in the case of intravenously administering (once) each of the compounds of this invention in the form of preparations shown in the Preparation Examples shown in Table 7.

[1] = Mus musculus, P388, iv, BDF1 mice, P-388 i.p., read-out: T/C (%) of MST

CO[C@H]1[C@@H](O)[C@@H](C)O[C@H](O[C@H]2[C@H](Oc3cccc4c(O)c5c(=O)oc6ccc(C)c7c(=O)oc(c34)c5c67)O[C@H](C)[C@H](O)[C@@H]2O)[C@@H]1O [chartreusin]
T/C (%) (P-388 leukemia cells; 50 mg/kg/day x 3, suspension in 0.2M Na2HPO4 / N,N-dimethylacetamide (4:1), comparison): 105% | antitumorous activity against P-388 leukemia (P-388 leukemia): effective | antitumorous activity against L-1210 leukemia (L-1210 leukemia): effective | antitumorous activity against B-16 melanoma (B-16 melanoma): effective | antitumorous activity when site of cancer inoculation and site of administration were different (cancer): not effective at all

COC1C(O)C(C)OC(OC2C(Oc3cccc4c(OC(=O)CCN)c5c(=O)oc6ccc(C)c7c(=O)oc(c34)c5c67)OC(C)C3OC(c4ccccc4)OC32)C1O (stereo not drawn) [compound 80, 6-O-(β-alanyl)-3',4'-O-benzylidene-chartreusin hydrochloride]
response vs control in vivo at 80 mg/kg (P-388 leukemia cells; [1]): 184% | T/C (%) of MST (P-388 leukemia cells; dose c: 40 mg/kg × 3, i.v. on days 1, 5 and 9, BDF1 mice, P-388 i.p., hydrochloride): 139% | LD50 (ddY mice; hydrochloride): ≥ 80 mg/kg

COC1C(O)C(C)OC(OC2C(Oc3cccc4c(OC(=O)CCNC(=O)c5ccccc5)c5c(=O)oc6ccc(C)c7c(=O)oc(c34)c5c67)OC(C)C3OC(c4ccccc4)OC32)C1O (centres unmarked) [compound 65]
response vs control in vivo at 80 mg/kg (P-388 leukemia cells; [1]): 175% | LD50 (ddY mice): ≥ 60 mg/kg

COC1C(O)C(C)OC(OC2C(Oc3cccc4c(OC(=O)CCCNC(=O)C(F)(F)F)c5c(=O)oc6ccc(C)c7c(=O)oc(c34)c5c67)OC(C)C3OC(c4ccc(F)cc4)OC32)C1O (centres unmarked) [Compound No. 57]
response vs control in vivo at 40 mg/kg (P-388 leukemia cells; Mus musculus, P388, iv, dose c: 40 mg/kg × 3, i.v. on days 1, 5 and 9, BDF1 mice, P-388 i.p., read-out: T/C (%) of MST): 162% | response vs control in vivo at 80 mg/kg (P-388 leukemia cells; [1]): 208% | LD50 (ddY mice): ≥ 80 mg/kg

COC1C(O)C(C)OC(OC2C(Oc3cccc4c(OC(=O)C5CCCCC5NC(=O)C(F)(F)F)c5c(=O)oc6ccc(C)c7c(=O)oc(c34)c5c67)OC(C)C3OC(c4ccccc4)OC32)C1O (single isomer, unassigned) [Compound No. 26, 6-O-(N-Trifluoroacetyl-2-Amino-Cyclohexanecarbonyl)-3',4'-O-Benzylidene-Chartreusin]
response vs control in vivo at 20 mg/kg (P-388 leukemia cells; Mus musculus, P388, iv, dose b: 20 mg/kg × 3, i.v. on days 1, 5 and 9, BDF1 mice, P-388 i.p., read-out: T/C (%) of MST): 195% | T/C (%) of MST (P-388 leukemia cells; dose c: 40 mg/kg × 3, i.v. on days 1, 5 and 9, BDF1 mice, P-388 i.p.): 220% | LD50 (ddY mice): ≥ 40 mg/kg

COC1C(O)C(C)OC(OC2C(Oc3cccc4c(OC(=O)C5CC5)c5c(=O)oc6ccc(C)c7c(=O)oc(c34)c5c67)OC(C)C3OC(c4ccccc4)OC32)C1O (centres unmarked) [compound 230]
response vs control in vivo at 80 mg/kg (P-388 leukemia cells; [1]): 144% | LD50 (ddY mice): ≥ 80 mg/kg

COC1C(O)C(C)OC(OC2C(Oc3cccc4c(OC(=O)C(C)CNC(=O)C(F)(F)F)c5c(=O)oc6ccc(C)c7c(=O)oc(c34)c5c67)OC(C)C3OC(c4cccc(F)c4)OC32)C1O (stereo not drawn) [Compound No. 37, 6-O-(N-trifluoroacetyl-β-amino-isobutyryl)-3',4'-O-(m-fluorobenzylidene)-chartreusin]
response vs control in vivo at 10 mg/kg (P-388 leukemia cells; Mus musculus, P388, iv, dose a: 10 mg/kg × 3, i.v. on days 1, 5 and 9, BDF1 mice, P-388 i.p., read-out: T/C (%) of MST): 146% | LD50 (ddY mice): ≥ 30 mg/kg
